Results reported in patent US10562887B2, “Triazolones and tetrazolones as inhibitors of ROCK” (BRISTOL-MYERS SQUIBB COMPANY, priority 2016, dated 2020).

What follows are compounds tested against ROCK2 (Homo sapiens (Human), UniProt O75116) (assay: ROCK2 assay (peptide phosphorylation, LABCHIP 3000 Reader)). Settings: 5 μM ATP, 1.5 μM peptide substrate.
Format: biochemical
Protocol: The effectiveness of compounds of the present invention as ROCK inhibitors can be determined in a 30 μL, assay containing 20 mM HEPES, pH 7.5, 20 mM MgCl2, 0.015% Brij-35, 4 mM DTT, 5 μM ATP and 1.5 μM peptide substrate (FITC-AHA-AKRRRLSSLRA-OH). Compounds were dissolved in DMSO so that the final concentration of DMSO was <2%, and the reaction was initiated with Rho kinase variants. After incubation, the reaction was terminated by the addition of EDTA and the phosphorylated and non-phosphorylated peptides separated using a LABCHIP® 3000 Reader (Caliper Life Sciences). […] Compounds were tested in dose-response format, and the inhibition of kinase activity was calculated at each concentration of compound. The inhibition data were fit using a curve-fitting program to determine the IC50; i.e., the concentration of compound required to inhibit 50% of kinase activity.
Representative Examples were tested in the ROCK2 assay described above and found having ROCK2 inhibitory activity.

Chain of ROCK2 (O75116 whole entry, species assumed): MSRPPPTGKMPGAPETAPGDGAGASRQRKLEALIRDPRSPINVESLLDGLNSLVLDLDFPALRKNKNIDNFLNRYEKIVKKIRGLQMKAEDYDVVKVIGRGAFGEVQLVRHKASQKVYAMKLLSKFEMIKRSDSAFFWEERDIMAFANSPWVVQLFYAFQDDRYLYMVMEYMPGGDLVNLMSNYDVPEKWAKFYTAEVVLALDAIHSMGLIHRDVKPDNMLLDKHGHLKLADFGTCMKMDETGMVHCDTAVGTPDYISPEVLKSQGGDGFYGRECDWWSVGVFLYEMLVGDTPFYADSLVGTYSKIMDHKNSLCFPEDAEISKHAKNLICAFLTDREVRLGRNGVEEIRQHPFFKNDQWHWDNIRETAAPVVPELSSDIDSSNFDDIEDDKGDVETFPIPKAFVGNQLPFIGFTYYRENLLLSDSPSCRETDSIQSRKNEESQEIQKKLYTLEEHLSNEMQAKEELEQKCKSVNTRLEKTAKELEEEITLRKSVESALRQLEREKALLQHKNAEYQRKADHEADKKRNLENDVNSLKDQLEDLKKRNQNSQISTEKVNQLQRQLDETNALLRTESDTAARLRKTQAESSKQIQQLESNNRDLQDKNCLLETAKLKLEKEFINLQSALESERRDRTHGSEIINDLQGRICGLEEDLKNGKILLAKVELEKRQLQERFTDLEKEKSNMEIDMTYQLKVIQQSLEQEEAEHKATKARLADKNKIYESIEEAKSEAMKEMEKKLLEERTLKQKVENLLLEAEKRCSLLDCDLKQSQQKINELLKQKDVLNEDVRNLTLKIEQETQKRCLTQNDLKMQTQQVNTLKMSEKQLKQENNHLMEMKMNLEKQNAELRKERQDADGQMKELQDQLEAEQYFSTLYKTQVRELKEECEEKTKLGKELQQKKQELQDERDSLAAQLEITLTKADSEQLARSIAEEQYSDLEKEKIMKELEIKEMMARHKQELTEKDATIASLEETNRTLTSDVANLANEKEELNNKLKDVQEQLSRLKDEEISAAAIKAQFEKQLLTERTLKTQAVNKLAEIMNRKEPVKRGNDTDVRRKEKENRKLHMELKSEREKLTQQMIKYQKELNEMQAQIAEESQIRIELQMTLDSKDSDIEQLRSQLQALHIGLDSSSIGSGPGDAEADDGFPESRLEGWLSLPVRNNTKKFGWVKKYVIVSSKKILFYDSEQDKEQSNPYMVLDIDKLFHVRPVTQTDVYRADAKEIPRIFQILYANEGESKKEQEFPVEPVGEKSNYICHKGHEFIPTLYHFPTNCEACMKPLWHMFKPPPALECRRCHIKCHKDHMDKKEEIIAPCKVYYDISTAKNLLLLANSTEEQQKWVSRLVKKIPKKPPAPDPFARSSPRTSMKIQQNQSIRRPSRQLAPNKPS

| Compound | IC50 |
| --- | --- |
| COc1cc(-n2ncn(Cc3ccccc3Cl)c2=O)ccc1-c1cn[nH]c1 [Example 32, 4-(2-chlorobenzyl)-1-(3-methoxy-4-(1H-pyrazol-4-yl)phenyl)-1H-1,2,4-triazol-5(4H)-one] | 5 to 50 nM |
| O=c1n(Cc2c(F)cccc2F)cnn1-c1ccc(-c2cn[nH]c2)cc1 [Example 33, 1-(4-(1H-pyrazol-4-yl)phenyl)-4-(2,6-difluorobenzyl)-1H-1,2,4-triazol-5(4H)-one] | 5 to 50 nM |
| N#Cc1cccc(Cn2cnn(-c3ccc(-c4cn[nH]c4)cc3)c2=O)c1 [Example 34, 3-((1-(4-(1H-pyrazol-4-yl)phenyl)-5-oxo-1H-1,2,4-triazol-4(5H)-yl)methyl)benzonitrile] | 50 to 250 nM |
| COc1cc(-n2ncn(Cc3cccc(C#N)c3)c2=O)ccc1-c1cn[nH]c1 [Example 35, 3-((1-(3-methoxy-4-(1H-pyrazol-4-yl)phenyl)-5-oxo-1H-1,2,4-triazol-4(5H)-yl)methyl)benzonitrile] | 50 to 250 nM |
| COc1cc(-n2ncn(Cc3cc(F)cc(F)c3)c2=O)ccc1-c1cn[nH]c1 [Example 36, 4-(3,5-difluorobenzyl)-1-(3-methoxy-4-(1H-pyrazol-4-yl)phenyl)-1H-1,2,4-triazol-5(4H)-one] | 5 to 50 nM |
| COc1cc(-n2ncn(Cc3cccc(OC(F)F)c3)c2=O)ccc1-c1cn[nH]c1 [Example 37, 4-(3-(difluoromethoxy)benzyl)-1-(3-methoxy-4-(1H-pyrazol-4-yl)phenyl)-1H-1,2,4-triazol-5(4H)-one] | 5 to 50 nM |
| COc1cc(-n2ncn(Cc3ccc(F)cc3)c2=O)ccc1-c1cn[nH]c1 [Example 38, 4-(4-fluorobenzyl)-1-(3-methoxy-4-(1H-pyrazol-4-yl)phenyl)-1H-1,2,4-triazol-5(4H)-one] | 50 to 250 nM |
| COc1cc(-n2ncn(Cc3c(F)cccc3F)c2=O)ccc1-c1cn[nH]c1 [Example 39, 4-(2,6-difluorobenzyl)-1-(3-methoxy-4-(1H-pyrazol-4-yl)phenyl)-1H-1,2,4-triazol-5(4H)-one] | 5 to 50 nM |
| CCc1cc(-n2ncn(Cc3cc(F)cc(OC)c3)c2=O)ccc1-c1cn[nH]c1 [Example 40, 1-(3-ethyl-4-(1H-pyrazol-4-yl)phenyl)-4-(3-fluoro-5-methoxybenzyl)-1H-1,2,4-triazol-5(4H)-one] | 5 to 50 nM |
| CCc1cc(-n2ncn(Cc3cccc(C#N)c3)c2=O)ccc1-c1cn[nH]c1 [Example 41, 3-((1-(3-ethyl-4-(1H-pyrazol-4-yl)phenyl)-5-oxo-1H-1,2,4-triazol-4(5H)-yl)methyl)benzonitrile] | 250 to 2000 nM |
| CCc1cc(-n2ncn(Cc3ccccc3F)c2=O)ccc1-c1cn[nH]c1 [Example 42, 1-(3-ethyl-4-(1H-pyrazol-4-yl)phenyl)-4-(2-fluorobenzyl)-1H-1,2,4-triazol-5(4H)-one] | 250 to 2000 nM |
| CCc1cc(-n2ncn(Cc3ccc(F)cc3)c2=O)ccc1-c1cn[nH]c1 [Example 43, 1-(3-ethyl-4-(1H-pyrazol-4-yl)phenyl)-4-(4-fluorobenzyl)-1H-1,2,4-triazol-5(4H)-one] | 250 to 2000 nM |
| CCc1cc(-n2ncn(Cc3cc(F)cc(F)c3)c2=O)ccc1-c1cn[nH]c1 [Example 44, 4-(3,5-difluorobenzyl)-1-(3-ethyl-4-(1H-pyrazol-4-yl)phenyl)-1H-1,2,4-triazol-5(4H)-one] | 5 to 50 nM |
| CCc1cc(-n2ncn(Cc3cccc(OC)c3)c2=O)ccc1-c1cn[nH]c1 [Example 45, 1-(3-ethyl-4-(1H-pyrazol-4-yl)phenyl)-4-(3-methoxybenzyl)-1H-1,2,4-triazol-5(4H)-one] | 5 to 50 nM |
| CCc1cc(-n2ncn(Cc3cccc(OC(F)F)c3)c2=O)ccc1-c1cn[nH]c1 [Example 46, 4-(3-(difluoromethoxy)benzyl)-1-(3-ethyl-4-(1H-pyrazol-4-yl)phenyl)-1H-1,2,4-triazol-5(4H)-one] | 50 to 250 nM |
| COc1cc(Cn2cnn(-c3ccc(-c4cn[nH]c4)cc3)c2=O)cc(OC)c1 [Example 49, 1-(4-(1H-pyrazol-4-yl)phenyl)-4-(3,5-dimethoxybenzyl)-1H-1,2,4-triazol-5(4H)-one] | 250 to 2000 nM |
| COc1cc(Cn2cnn(-c3ccc(-c4cn[nH]c4)cc3)c2=O)ccc1F [Example 50, 4-[(4-fluoro-3-methoxyphenyl)methyl]-1-[4-(1H-pyrazol-4-yl)phenyl]-4,5-dihydro-1H-1,2,4-triazol-5-one] | < 5 nM |
| COc1cccc(Cn2cnn(-c3ccc(-c4cn[nH]c4)cc3)c2=O)c1F [Example 51, 1-(4-(1H-pyrazol-4-yl)phenyl)-4-(2-fluoro-3-methoxybenzyl)-1H-1,2,4-triazol-5(4H)-one] | 5 to 50 nM |
| COc1ccc(F)cc1Cn1cnn(-c2ccc(-c3cn[nH]c3)cc2)c1=O [Example 52, 1-(4-(1H-pyrazol-4-yl)phenyl)-4-(5-fluoro-2-methoxybenzyl)-1H-1,2,4-triazol-5(4H)-one] | 250 to 2000 nM |
| COc1ccc(Cn2cnn(-c3ccc(-c4cn[nH]c4)cc3)c2=O)cc1F [Example 53, 1-(4-(1H-pyrazol-4-yl)phenyl)-4-(3-fluoro-4-methoxybenzyl)-1H-1,2,4-triazol-5(4H)-one] | 250 to 2000 nM |
| CCc1cc(-n2ncn(Cc3ccccc3)c2=O)ccc1-c1cn[nH]c1 [Example 54, 4-benzyl-1-(3-ethyl-4-(1H-pyrazol-4-yl)phenyl)-1H-1,2,4-triazol-5(4H)-one] | 50 to 250 nM |
| CCc1cc(-n2ncn(Cc3cccc(F)c3)c2=O)ccc1-c1cn[nH]c1 [Example 55, 1-(3-ethyl-4-(1H-pyrazol-4-yl)phenyl)-4-(3-fluorobenzyl)-1H-1,2,4-triazol-5(4H)-one] | 5 to 50 nM |
| CCc1cc(-n2ncn(Cc3c(F)cccc3F)c2=O)ccc1-c1cn[nH]c1 [Example 57, 4-(2,6-difluorobenzyl)-1-(3-ethyl-4-(1H-pyrazol-4-yl)phenyl)-1H-1,2,4-triazol-5(4H)-one] | 250 to 2000 nM |
| CCc1cc(-n2ncn(C(C)c3ccccc3)c2=O)ccc1-c1cn[nH]c1 (centres unmarked) [Example 58, 1-(3-ethyl-4-(1H-pyrazol-4-yl)phenyl)-4-(1-phenylethyl)-1H-1,2,4-triazol-5(4H)-one] | 5 to 50 nM |
| Cc1nn(Cc2ccccc2)c(=O)n1-c1ccc(-c2cn[nH]c2)cc1 [Example 59, 4-(4-(1H-pyrazol-4-yl)phenyl)-1-benzyl-3-methyl-1H-1,2,4-triazol-5(4H)-one] | 250 to 2000 nM |
| COc1cc(-n2c(C)nn(Cc3ccccc3)c2=O)ccc1-c1cn[nH]c1 [Example 60, 1-benzyl-4-(3-methoxy-4-(1H-pyrazol-4-yl)phenyl)-3-methyl-1H-1,2,4-triazol-5(4H)-one] | 250 to 2000 nM |
| COc1cccc(Cn2nc(C)n(-c3ccc(-c4cn[nH]c4)c(OC)c3)c2=O)c1 [Example 61, 4-(3-methoxy-4-(1H-pyrazol-4-yl)phenyl)-1-(3-methoxybenzyl)-3-methyl-1H-1,2,4-triazol-5(4H)-one] | 50 to 250 nM |
| COc1cc(-n2c(C)nn(C(C)c3ccccc3)c2=O)ccc1-c1cn[nH]c1 (centres unmarked) [Example 62, 4-(3-methoxy-4-(1H-pyrazol-4-yl)phenyl)-3-methyl-1-(1-phenylethyl)-1H-1,2,4-triazol-5(4H)-one] | 250 to 2000 nM |
| COc1cc(-c2cn[nH]c2)ccc1-n1c(C)nn(Cc2ccccc2)c1=O [Example 63, 1-benzyl-4-(2-methoxy-4-(1H-pyrazol-4-yl)phenyl)-3-methyl-1H-1,2,4-triazol-5(4H)-one] | 250 to 2000 nM |
